Here are results for two compounds from US20130052281A1, “NOVEL COMPOUNDS” (Takeda Pharmaceutical Company Limited, priority 2011, published 2013).

Each structure is given as a SMILES string. pIC50: −log10 of the molar value.

The target in the assay is Human DAAO enzyme (Homo sapiens, UniProt P14920). The assay can be described thus: In Vitro DAAO Enzyme Assay (Amplex Red detection of H2O2 from D-Serine). Format: biochemical. To be noted: inhibition of DAAO activity in the presence of 10 mM D-Serine; 60 minutes at 25° C.; ten point dose-response. As for the experimental part:
The Km of D-Serine was measured for each enzyme batch to maintain consistency; this Km was used in subsequent assays.
On the day of the assay compounds were serially diluted in DMSO before being diluted 1:20 with assay buffer (20 mM Tris ph 7.4). […] Finally 5 μl ‘Amplex’ red reagent (Invitrogen) was added to all wells as per manufacturer's protocol. The plate was incubated for 60 minutes in the dark at 25° C. and the fluorescence in each well was measured in the Envision plate reader.
Concentration response curves were generated using the average of duplicate wells for each data point and analyzed using non-linear regression and four parameter curve fit.

Human DAAO enzyme, sequence (P14920 whole entry): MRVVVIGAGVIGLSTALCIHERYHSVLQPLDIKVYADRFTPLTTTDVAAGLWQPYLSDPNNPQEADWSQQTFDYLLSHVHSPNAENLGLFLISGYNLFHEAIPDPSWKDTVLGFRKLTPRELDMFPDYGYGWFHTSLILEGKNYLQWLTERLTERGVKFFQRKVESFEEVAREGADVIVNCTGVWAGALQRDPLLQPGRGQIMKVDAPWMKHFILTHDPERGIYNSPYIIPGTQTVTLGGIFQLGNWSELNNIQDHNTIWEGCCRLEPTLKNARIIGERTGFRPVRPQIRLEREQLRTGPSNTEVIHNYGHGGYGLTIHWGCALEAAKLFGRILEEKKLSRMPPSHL

The term pIC50 denotes the negative decadic logarithm of the IC50, by convention in mol/L. In the case of `O=c1[nH]nc(CCc2cccc(OC(F)(F)F)c2)cc1O` [Example 10, 4-Hydroxy-6-{2-[3-(trifluoromethoxy)phenyl]ethyl}pyridazin-3(2H)-one], the pIC50 is 7.66.

Regarding `O=c1[nH]nc(CCc2cncc(C(F)(F)F)c2)cc1O` [Example 12, 4-Hydroxy-6-{2-[5-(trifluoromethyl)pyridin-3-yl]ethyl}pyridazin-3(2H)-one], the pIC50 was 7.64.
